Data from the Deep4Chem optical property database.

Assay: photoluminescence quantum yield (fraction); solvent given as SMILES

Structure (SMILES): CC1=[N+]2C(=C(Oc3cc(C)c4c(c3)CC[C@@](C)(CCC[C@H](C)CCC[C@H](C)CCCC(C)C)O4)c3ccc(C)n3[B-]2(F)F)C=C1c1cc2n(c1)[B-](F)(F)[N+]1=CC=CC1=C2c1c(C)cc(C)cc1C
- photoluminescence quantum yield (in C1CCCCC1): 0.45
- photoluminescence quantum yield (in CCOC(C)=O): 0.11

Structure (SMILES): c1ccc2c(c1)ccc1ccc3ccc4ccc5ccccc5c4c3c12
- photoluminescence quantum yield (in ClCCl): 0.02

Structure (SMILES): COc1ccc(-c2cnc(-c3ccccc3)o2)cc1OC
- photoluminescence quantum yield (in ClCCl): 0.19

Structure (SMILES): CCC1=C(C)C(=O)n2c1cc1c(C)cc(C)n1c2=O
- photoluminescence quantum yield (in CO): 0.89
- photoluminescence quantum yield (in CS(C)=O): 0.92
- photoluminescence quantum yield (in ClC(Cl)Cl): 0.96
- photoluminescence quantum yield (in c1ccccc1): 1

Structure (SMILES): Cc1c(C)c(B(c2c(C)c(C)c(N3c4ccccc4Oc4ccccc43)c(C)c2C)c2c(C)c(C)c(N3c4ccccc4Oc4ccccc43)c(C)c2C)c(C)c(C)c1C#N
- photoluminescence quantum yield (in c1ccc([Si](c2ccccc2)(c2ccc(-n3c4ccccc4c4ccccc43)cc2)c2ccc(-n3c4ccccc4c4ccccc43)cc2)cc1): 0.75

Structure (SMILES): CCCCCOc1ccc2c(c1)c1ccc3cccc4c5cccc6oc(=O)c2c(c65)c1c34
- photoluminescence quantum yield (in C1CCOC1): 0.529

Structure (SMILES): CCn1c2cc(OC)ccc2c2c3nsnc3c3c4ccc(OC)cc4n(CC)c3c21
- photoluminescence quantum yield (in CN(C)C=O): 0.49
- photoluminescence quantum yield (in Cc1ccccc1): 0.41
- photoluminescence quantum yield (in ClCCl): 0.44

Structure (SMILES): CCCCCCOc1ccc(/C=C/c2ccc(N(c3ccc(/C=C/c4ccc(OCCCCCC)cc4)cc3)c3ccc(-c4nc5ccccc5nc4-c4ccc(N(c5ccc(/C=C/c6ccc(OCCCCCC)cc6)cc5)c5ccc(/C=C/c6ccc(OCCCCCC)cc6)cc5)cc4)cc3)cc2)cc1
- photoluminescence quantum yield (in C1CCOC1): 0.66

Structure (SMILES): COc1cccc(C2=CC3=C(c4c(C)cc(C)cc4C)c4cc(-c5cccc(OC)c5)c(-c5cccc(OC)c5)n4[B-](F)(F)[N+]3=C2c2cccc(OC)c2)c1
- photoluminescence quantum yield (in C1CCCCC1): 0.86
- photoluminescence quantum yield (in C1CCOC1): 0.76
- photoluminescence quantum yield (in CC#N): 0.65
- photoluminescence quantum yield (in Cc1ccccc1): 0.78
- photoluminescence quantum yield (in ClCCl): 0.83

Structure (SMILES): CN(C)c1ccc(/C=C/c2cnc(/C=C/c3ccc(C#N)cc3)o2)cc1
- photoluminescence quantum yield (in ClCCl): 0.5

Structure (SMILES): CCCCCc1c(C(=O)c2ccc3c4c(cccc24)-c2cccc4c2C3CC=C4)c2ccc3cccc4c5cccc6ccc1c(c65)c2c34 (stereo not drawn)
- photoluminescence quantum yield (in ClCCl): 0.082

Structure (SMILES): O=C1OC(c2ccccc2)=C/C1=C\c1ccc([N+](=O)[O-])cc1
- photoluminescence quantum yield (in C1COCCO1): 0.083

Structure (SMILES): CC1=C(c2ccc(N(C)C)cc2)C(C)=[N+]2C1=C(c1c(-c3ccccn3)nc3ccccn13)c1c(C)cc(C)n1[B-]2(F)F
- photoluminescence quantum yield (in ClCCl): 0.0041

Structure (SMILES): COC(=O)[C@@H]1C(=O)Oc2ccccc2[C@H]1c1c[nH]c2ccccc12
- photoluminescence quantum yield (in CS(C)=O): 0.0094

Structure (SMILES): ClP1(Cl)=N[P@](Cl)(Oc2ccc3ccc4cccc5ccc2c3c45)=N[P@@](Cl)(Oc2ccc3ccc4cccc5ccc2c3c45)=N1
- photoluminescence quantum yield (in ClCCl): 0.76

Structure (SMILES): c1cc2c3c(c1)-c1ccc4c5c(ccc(c15)B3c1ccc3c5c(ccc-2c15)CC3)CC4
- photoluminescence quantum yield (in Cc1ccccc1): 0.79

Structure (SMILES): Cc1ccc(-c2ccc(C(=O)NC(C)(C)C)c3c2ccc2c4ccccc4c4ccccc4c23)cc1
- photoluminescence quantum yield (in ClCCl): 0.07

Structure (SMILES): CC(C)[Si](C#Cc1ccc(C#Cc2c3cc4ccccc4cc3c(C#C[Si](C(C)C)(C(C)C)C(C)C)c3cc4ccccc4cc23)cc1)(C(C)C)C(C)C
- photoluminescence quantum yield (in ClCCl): 0.12

Structure (SMILES): CCCCCn1c2ccc(S(=O)(=O)O)cc2c(=O)c2cc(S(=O)(=O)O)ccc21
- photoluminescence quantum yield (in CS(C)=O): 0.7
- photoluminescence quantum yield (in O): 0.92

Structure (SMILES): F[B-]12Oc3ccccc3-c3c4[n+]5c(c([n+]31)-c1ccccc1O2)-c1ccccc1O[B-]5(F)Oc1ccccc1-4
- photoluminescence quantum yield (in ClCCl): 0.29

Structure (SMILES): COC(=O)C(NC(=O)OC(C)(C)C)c1ccc2oc(-c3ccc(OC(=O)c4ccccc4)cc3OC(=O)c3ccccc3)nc2c1 (stereo not drawn)
- photoluminescence quantum yield (in CC1CCCCC1): 0.003
- photoluminescence quantum yield (in CC#N): 0.003
- photoluminescence quantum yield (in CO): 0.002

Structure (SMILES): CC1=C(C2=C(C)C(C)=[N+]3C2=Cc2cc(C)c(C)n2[B-]3(F)F)C2=Cc3cc(C)c(C)n3[B-](F)(F)[N+]2=C1C
- photoluminescence quantum yield (in ClCCl): 0.05

Structure (SMILES): CCCCC(CC)Cn1c2cc(C#N)ccc2c2ccc(C#Cc3ccc4ccc5c(C#Cc6ccc7c8ccc(C#N)cc8n(CC(CC)CCCC)c7c6)ccc6ccc3c4c65)cc21 (stereo not drawn)
- photoluminescence quantum yield (in ClCCl): 0.38

Structure (SMILES): CCN(CC)c1ccc2n1[B-](F)(F)[N+]1=CC(/C=C/C(=O)OC(C)(C)C)=CC1=C2c1c(C)cc(C)cc1C
- photoluminescence quantum yield (in ClCCl): 0.26

Structure (SMILES): Cc1c(C2=[N+]3C(=Cc4c(C)c5ccccc5n4[B-]3(F)F)c3ccccc32)[nH]c2ccccc12
- photoluminescence quantum yield (in C1CCOC1): 0.04
- photoluminescence quantum yield (in CC#N): 0.04
- photoluminescence quantum yield (in CCCCCC): 0.14
- photoluminescence quantum yield (in CO): 0.03
- photoluminescence quantum yield (in Cc1ccccc1): 0.14
- photoluminescence quantum yield (in ClCCl): 0.08

Structure (SMILES): c1cc2ccc3ccc4cc3c2cc1c1ccc2c(c1)c1cc(ccc1[C@]13OCCO[C@]21OCCO3)c1ccc2c(c1)c1cc4ccc1[C@]13OCCO[C@]21OCCO3
- photoluminescence quantum yield (in Cc1ccccc1): 0.63

Structure (SMILES): CCCCN(CCCC)c1ccc2c#cc3cc4c#cc5ccc(C(F)(F)F)cc5c#cc#cc5cc(N(CCCC)CCCC)ccc5c#cc4cc3c#cc3ccc(C(F)(F)F)cc3c#cc#cc2c1
- photoluminescence quantum yield (in ClCCl): 0.33

Structure (SMILES): CCCCn1c(-c2ccc(-c3nnc(-c4ccccc4)o3)cc2)nc(-c2ccccc2)c1-c1ccccc1
- photoluminescence quantum yield (in ClCCl): 0.21

Structure (SMILES): FC(F)(F)c1ccc(C2=CC3=c4cc(-c5ccc(C(F)(F)F)cc5)c5nc(C(F)(F)C(F)(F)C(F)(F)F)nc6c(-c7ccc(C(F)(F)F)cc7)cc(c4c65)C4=CC(c5ccc(C(F)(F)F)cc5)=C5N=C(C(F)(F)C(F)(F)C(F)(F)F)N=C2C5C43)cc1 (stereo not drawn)
- photoluminescence quantum yield (in C1CCOC1): 0.96

Structure (SMILES): CCN1/C(=C/C=C/C2=[N+](C)c3ccccc3C2(C)C)C(C)(C)c2ccccc21
- photoluminescence quantum yield (in CS(C)=O): 0.07

Structure (SMILES): N#Cc1nn(-c2cccc(C(F)(F)F)c2)nc1N1CCCC1
- photoluminescence quantum yield (in CC#N): 0.801

Structure (SMILES): Cc1c(COC(=O)c2ccccc2)n2c(OCC(=O)c3ccccc3)c(C)c(=O)n2c1=O
- photoluminescence quantum yield (in CCO): 0.839

Structure (SMILES): Cc1c(COC(=O)Cc2ccccc2)n2c(OCC(=O)Cc3ccccc3)c(C)c(=O)n2c1=O
- photoluminescence quantum yield (in CCO): 0.836

Structure (SMILES): Cn1c2ccc(S(=O)(=O)O)cc2c(=O)c2cc(S(=O)(=O)O)ccc21
- photoluminescence quantum yield (in CS(C)=O): 0.64
- photoluminescence quantum yield (in O): 0.76

Structure (SMILES): CC1(C)C(/C=C/C2=C(Oc3ccc(CCN=C=S)cc3)C(=C/C=C3/N(CCCS(=O)(=O)[O-])c4ccccc4C3(C)C)/CCC2)=[N+](CCCS(=O)(=O)[O-])c2ccccc21
- photoluminescence quantum yield (in CO): 0.07

Structure (SMILES): c1ccc2nc(-n3c4ccccc4c4ccccc43)c(-n3c4ccccc4c4ccccc43)nc2c1
- photoluminescence quantum yield (in Cc1ccccc1): 0.13

Structure (SMILES): O=C(c1ccc2c3c(sc2c1)-c1ccccc1P3(=O)c1ccccc1)c1c(F)c(F)c(F)c(F)c1F (stereo not drawn)
- photoluminescence quantum yield (in ClCCl): 0.29

Structure (SMILES): CCCCCCN(CCCCCC)c1ccc(C#Cc2c(F)c(F)c(F)c(F)c2F)cc1
- photoluminescence quantum yield (in CO): 0.0014
- photoluminescence quantum yield (in ClCCl): 0.026

Structure (SMILES): COc1ccc2c(c1)CCC1=C(C#Cc3cc4ccccc4c4ccccc34)O[B-](F)(F)[O+]=C12
- photoluminescence quantum yield (in ClCCl): 0.425

Structure (SMILES): CCN(CC)c1ccc2cc(/C=C/C(O)=C/C(C)=O)c(=O)oc2c1
- photoluminescence quantum yield (in CC#N): 0.36
- photoluminescence quantum yield (in CC(C)=O): 0.46
- photoluminescence quantum yield (in CCOC(C)=O): 0.5
- photoluminescence quantum yield (in CO): 0.35
- photoluminescence quantum yield (in CS(C)=O): 0.39
- photoluminescence quantum yield (in Cc1ccccc1): 0.66
- photoluminescence quantum yield (in ClC(Cl)Cl): 0.53
- photoluminescence quantum yield (in ClCCl): 0.52

Structure (SMILES): C(#Cc1ccc(-n2c3ccccc3c3ccccc32)cc1)c1ccc(-c2nc(-c3ccc(C#Cc4ccc(-n5c6ccccc6c6ccccc65)cc4)cc3)nc(-c3ccc(C#Cc4ccc(-n5c6ccccc6c6ccccc65)cc4)cc3)n2)cc1
- photoluminescence quantum yield (in C1CCOC1): 0.69
- photoluminescence quantum yield (in CC#N): 0.02
- photoluminescence quantum yield (in CCCCCC): 0.94
- photoluminescence quantum yield (in Cc1ccccc1): 1
- photoluminescence quantum yield (in ClCCl): 0.67

Structure (SMILES): BrCCCCCCCCCCCCOc1cc2ccc3cccc4ccc(c1)c2c34
- photoluminescence quantum yield (in Cc1ccccc1): 0.59
